pIC50: −log10 of the molar value.
What follows are compounds tested against recombinant human ACC2 (Homo sapiens (Human), UniProt O00763) (assay: Measurement of inhibitory activity on human ACC2 (MALDI-TOF MS, acetyl CoA to malonyl CoA conversion)). Conditions: Table 154.
Sequence of recombinant human ACC2 (O00763 27-2458): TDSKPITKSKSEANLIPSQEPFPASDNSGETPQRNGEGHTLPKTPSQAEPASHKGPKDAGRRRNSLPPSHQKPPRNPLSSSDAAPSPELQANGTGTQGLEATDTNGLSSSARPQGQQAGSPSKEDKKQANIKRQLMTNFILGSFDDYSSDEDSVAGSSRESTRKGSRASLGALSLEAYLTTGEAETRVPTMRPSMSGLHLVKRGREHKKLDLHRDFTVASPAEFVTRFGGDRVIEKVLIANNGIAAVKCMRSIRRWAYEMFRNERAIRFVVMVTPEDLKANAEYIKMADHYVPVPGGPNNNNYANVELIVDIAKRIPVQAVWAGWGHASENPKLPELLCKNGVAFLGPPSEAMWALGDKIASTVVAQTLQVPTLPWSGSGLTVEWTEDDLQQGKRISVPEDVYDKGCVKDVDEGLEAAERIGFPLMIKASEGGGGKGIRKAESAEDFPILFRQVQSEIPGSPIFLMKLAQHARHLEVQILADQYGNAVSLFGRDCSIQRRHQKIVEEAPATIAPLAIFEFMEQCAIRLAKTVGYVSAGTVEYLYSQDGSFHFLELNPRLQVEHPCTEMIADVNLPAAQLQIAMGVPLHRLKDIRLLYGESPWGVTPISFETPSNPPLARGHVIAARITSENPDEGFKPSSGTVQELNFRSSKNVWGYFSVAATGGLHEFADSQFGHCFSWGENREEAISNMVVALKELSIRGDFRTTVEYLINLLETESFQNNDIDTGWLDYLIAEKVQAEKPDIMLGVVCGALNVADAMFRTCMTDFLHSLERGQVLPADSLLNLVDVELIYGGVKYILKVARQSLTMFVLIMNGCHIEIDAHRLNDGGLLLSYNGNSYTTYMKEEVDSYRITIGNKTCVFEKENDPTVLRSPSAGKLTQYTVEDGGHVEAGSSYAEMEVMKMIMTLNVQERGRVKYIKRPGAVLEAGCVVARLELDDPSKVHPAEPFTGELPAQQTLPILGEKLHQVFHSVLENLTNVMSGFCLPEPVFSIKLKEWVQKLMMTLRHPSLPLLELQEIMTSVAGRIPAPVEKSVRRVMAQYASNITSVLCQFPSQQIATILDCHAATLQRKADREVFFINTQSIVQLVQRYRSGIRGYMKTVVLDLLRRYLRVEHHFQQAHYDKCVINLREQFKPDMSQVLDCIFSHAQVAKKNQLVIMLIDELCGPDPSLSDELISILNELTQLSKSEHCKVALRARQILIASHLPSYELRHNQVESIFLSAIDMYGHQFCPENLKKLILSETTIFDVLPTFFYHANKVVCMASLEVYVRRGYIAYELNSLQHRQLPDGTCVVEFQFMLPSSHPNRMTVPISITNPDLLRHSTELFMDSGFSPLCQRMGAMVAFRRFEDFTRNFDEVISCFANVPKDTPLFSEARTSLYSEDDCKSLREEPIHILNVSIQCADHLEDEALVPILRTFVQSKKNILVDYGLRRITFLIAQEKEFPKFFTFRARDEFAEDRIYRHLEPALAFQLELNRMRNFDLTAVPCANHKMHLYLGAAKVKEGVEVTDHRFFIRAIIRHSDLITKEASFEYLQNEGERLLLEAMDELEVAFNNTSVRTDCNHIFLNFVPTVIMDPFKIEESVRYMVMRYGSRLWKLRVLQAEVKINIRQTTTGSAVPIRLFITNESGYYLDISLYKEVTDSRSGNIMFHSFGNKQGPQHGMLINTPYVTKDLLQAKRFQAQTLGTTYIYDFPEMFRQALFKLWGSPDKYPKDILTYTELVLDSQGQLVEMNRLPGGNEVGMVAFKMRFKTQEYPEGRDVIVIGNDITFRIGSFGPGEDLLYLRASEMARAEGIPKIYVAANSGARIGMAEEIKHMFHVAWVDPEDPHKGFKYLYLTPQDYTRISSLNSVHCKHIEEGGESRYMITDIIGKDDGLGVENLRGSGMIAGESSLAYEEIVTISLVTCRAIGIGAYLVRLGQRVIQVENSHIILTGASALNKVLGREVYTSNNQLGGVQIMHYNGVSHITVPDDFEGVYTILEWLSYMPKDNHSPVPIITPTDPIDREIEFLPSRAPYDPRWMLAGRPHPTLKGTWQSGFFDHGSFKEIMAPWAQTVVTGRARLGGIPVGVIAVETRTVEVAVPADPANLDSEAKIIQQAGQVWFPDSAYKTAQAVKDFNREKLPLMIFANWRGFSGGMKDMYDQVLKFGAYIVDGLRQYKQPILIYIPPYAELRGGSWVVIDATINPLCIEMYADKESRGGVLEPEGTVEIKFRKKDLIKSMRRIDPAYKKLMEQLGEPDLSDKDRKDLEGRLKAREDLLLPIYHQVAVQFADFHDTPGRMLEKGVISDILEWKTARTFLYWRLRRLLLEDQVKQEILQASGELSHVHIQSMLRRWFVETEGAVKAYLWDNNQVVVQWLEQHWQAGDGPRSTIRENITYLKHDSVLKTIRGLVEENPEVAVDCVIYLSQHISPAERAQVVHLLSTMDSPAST
Format: biochemical
Source text: Preparation 1: Preparation of Recombinant Human ACC2
After a cDNA encoding human ACC2 (27 amino acid residue to 2458 amino acid residues from the N-terminus) was cloned from human kidney cDNA library (Clontech), human ACC2 gene containing His-tag sequence at 5′ terminus was inserted into pFastBac1 (Invitrogen). Recombinant baculovirus was generated using Bac-to-Bac baculovirus expression system (Invitrogen) according to the manufacturer's protocol. To express human ACC2, Sf-9 cells were infected with recombinant baculovirus. After infected cells were disrupted, the filtrated lysate was subjected to Ni-affinity chromatography and anion-exchange chromatography. The fractions containing human ACC2 protein were pooled as recombinant human ACC2 solution.
The Measurement of Inhibitory Activity on Human ACC1 and the ACC2
Recombinant human ACC1 and recombinant human ACC2, which were prepared by the method mentioned above, were preincubated with assay buffer solution (50 mM HEPES-KOH (pH 7.4), 10 mM magnesium chloride, 6-10 mM potassium citrate, 4 mM reduced form of glutathione, 1.5 mg/ml bovine serum albumin) for one hour. Then, 0.2 μL of each this invention compound solution (in DMSO) were dispensed to 384-well microplate, 5 μL of the preincubated enzyme solution and 5 μL of substrate solution (50 mM HEPES-KOH (pH 7.4), 1 mM ATP, 0.8 mM acetyl CoA and 25-50 mM potassium bicarbonate) were added to microplate. After centrifugation and shaking, the reaction mixtures were incubated in a humidified box at room temperature for 1 to 3 hours. After the incubation, the enzyme reactions were stopped by the addition of EDTA. Then, after the samples were cocrystallized with CHCA (α-cyano-4-hydroxy cinnamic acid) matrices on MALDI target plate, by using the matrix assist laser […] time-of-flight mass spectrometer (MALDI-TOF MS), samples were measured in reflector negative mode. Deprotonated ions of acetyl CoA (AcCoA) of substrate and malonyl CoA (MalCoA) of the reaction product were detected, then, the conversion rates of acetyl CoA to malonyl CoA was calculated by the intensity of [MalCoA-H]−/(Intensity of [MalCoA-H]−+Intensity of [AcCoA-H]−) using each signal strength. […] In addition, potassium citrate concentrations in assay buffer solution, potassium hydrogen carbonate concentrations in substrate solution and incubation time were adjusted by each lot of enzyme.
With `CC(=O)N[C@@H](C)COc1cnc(Oc2ccc3sc(C(C)C)nc3c2Cl)cn1` [Compound I-070] the pIC50 was 6.33. Compound `CCOc1nc2ccc(Oc3cnc(OC[C@H](C)NC(=O)CO)cn3)c(Cl)c2s1` [Compound I-071] has a pIC50 of 7.27. With `CC(=O)N[C@@H](C)COc1cnc(Oc2ccc3nc(N4CC(F)(F)C4)ncc3c2Cl)cn1` [Compound I-072] the pIC50 was 6.81. `CC(=O)N[C@@H](C)COc1cnc(Oc2ccc3nc(N4CCC(F)(F)CC4)ncc3c2Cl)cn1` [Compound I-073] showed a pIC50 of 6.66. With `CCOc1nc2ccc(O[C@H]3C[C@H](OC[C@H](C)NC(C)=O)C3)c(F)c2s1` [Compound I-074] the pIC50 was 7.07. `CCOc1nc2ccc(O[C@H]3C[C@H](OC[C@H](C)NC(C)=O)C3)c(Cl)c2s1` [Compound I-075] showed a pIC50 of 7.70. For `CCOc1nc2ccc(O[C@H]3C[C@@H](OC[C@H](C)NC(C)=O)C3)c(F)c2s1` [Compound I-076], the pIC50 was 6.99. `CCOc1nc2ccc(O[C@H]3C[C@@H](OC[C@H](C)NC(C)=O)C3)c(Cl)c2s1` [Compound I-077] gave a pIC50 of 6.77. With `CCOc1nc2ccc(O[C@H]3CC[C@](C)(OC[C@H](C)NC(C)=O)CC3)c(F)c2s1` [Compound I-078] the pIC50 was 6.72. `CC(=O)N[C@@H](C)COc1cnc(Oc2ccc3c(c2Cl)OCCN(CC(F)(F)F)C3=O)cn1` [Compound I-080] was tested, and the pIC50 was 5.89. In the case of `CC(=O)N[C@@H](C)COc1cnc(Oc2ccc3c(c2Cl)OCCN(C(C)C)C3=O)cn1` [Compound I-082], the pIC50 was 5.42. Work on `CCOc1nc2ccc(O[C@H]3CC[C@](C)(OC[C@H](C)NC(C)=O)CC3)c(Cl)c2s1` [Compound I-083] yielded a pIC50 of 6.45. `CCOc1nc2ccc(OC[C@H]3C[C@@H](OC[C@H](C)NC(C)=O)C3)c(F)c2s1` [Compound I-086] gave a pIC50 of 7.38. For `CCOc1nc2ccc(OC[C@H]3C[C@@H](OC[C@H](C)NC(C)=O)C3)c(Cl)c2s1` [Compound I-087], the pIC50 was 7.19. In the case of `CCOc1nc2ccc(OC[C@H]3C[C@H](OC[C@H](C)NC(C)=O)C3)c(F)c2s1` [Compound I-088], the pIC50 was 7.82. In the case of `CCOc1nc2ccc(OC[C@H]3C[C@H](OC[C@H](C)NC(C)=O)C3)c(Cl)c2s1` [Compound I-089], the pIC50 was 7.21. In the case of `CC(=O)N[C@@H](C)COc1cnc(Oc2ccc(C(=O)Nc3ccc(F)cc3)c(F)c2F)cn1` [Compound I-090], the pIC50 was 7.35. Work on `CCOc1nc2ccc(Oc3cnc(OC[C@H](CO)NC(C)=O)cn3)c(F)c2s1` [Compound I-092] yielded a pIC50 of 7.05. With `CC(=O)N[C@@H](C)CO[C@H]1CC[C@H](Oc2ccc3c(c2Cl)OCCN(CC(F)(F)F)C3=O)CC1` [Compound I-094] the pIC50 was 6.73. For `CC(=O)N[C@@H](C)COc1cnc(Oc2ccc(C(=O)NCC(C)C)c(F)c2F)cn1` [Compound I-095], the pIC50 was 5.98. For `CC(=O)N[C@@H](C)COc1cnc(Oc2ccc(C(=O)N3CCCCC3)c(F)c2F)cn1` [Compound I-096], the pIC50 was 6.11. Compound `CC(=O)N[C@@H](C)CO[C@H]1C[C@H](COc2ccc3nc(C(C)(F)F)sc3c2F)C1` [Compound I-097] has a pIC50 of 7.01. With `CC(=O)N[C@@H](C)CO[C@H]1C[C@H](COc2ccc3nc(C(C)(C)O)sc3c2F)C1` [Compound I-099] the pIC50 was 6.83. `CCOc1nc2cc(Cl)c(OC[C@H]3C[C@H](OC[C@H](C)NC(C)=O)C3)cc2s1` [Compound I-100] gave a pIC50 of 7.57. `CCOc1nc2ccc(OC[C@H]3C[C@H](OC[C@H](C)NC(C)=O)C3)cc2s1` [Compound I-101] showed a pIC50 of 7.59. Compound `CC(=O)N[C@@H](C)CO[C@H]1CC[C@H](Oc2ncc(-c3ccccc3)cc2F)CC1` [Compound I-102] has a pIC50 of 7.36. `CC(=O)N[C@@H](C)CO[C@H]1CC[C@H](Oc2ncc(-c3ccccc3)cc2Cl)CC1` [Compound I-104] showed a pIC50 of 7.92. With `CC(=O)N[C@@H](C)CO[C@H]1CC[C@H](Oc2ncc(-c3ccccc3)cc2C#N)CC1` [Compound I-105] the pIC50 was 6.74.

Same assay, conditions: Tables 155-159
In the case of `CC(=O)N[C@@H](C)CO[C@H]1C[C@H](COc2ccc3nc(C(C)(F)F)sc3c2F)C1` [Compound I-107], the pIC50 was 7.01. With `CC(=O)N[C@@H](C)CO[C@H]1C[C@H](COc2ccc3nc(C(C)(F)F)sc3c2Cl)C1` [Compound I-108] the pIC50 was 6.10. `CC(=O)N[C@@H](C)CO[C@H]1C[C@H](COc2ccc3nc(C(C)(C)O)sc3c2F)C1` [Compound I-109] was tested, and the pIC50 was 6.83. With `CCOc1nc2cc(Cl)c(OC[C@H]3C[C@H](OC[C@H](C)NC(C)=O)C3)cc2s1` [Compound I-110] the pIC50 was 7.57. With `CCOc1nc2ccc(OC[C@H]3C[C@H](OC[C@H](C)NC(C)=O)C3)cc2s1` [Compound I-111] the pIC50 was 7.59. `CC(=O)N[C@@H](C)CO[C@H]1CC[C@H](Oc2ccc3nc(OC(C)CF)sc3c2Cl)CC1` (stereo partly drawn) [Compound I-112] gave a pIC50 of 7.51. For `CC(=O)N[C@@H](C)CO[C@H]1CC[C@H](Oc2ccc3nc(OC(C)C)sc3c2Cl)CC1` [Compound I-113], the pIC50 was 8.00. For `CC(=O)N[C@@H](C)CO[C@H]1CC[C@H](Oc2cc3sc(OC(C)C)nc3cc2Cl)CC1` [Compound I-114], the pIC50 was 6.71. Compound `CCOc1nc2ccc(OC[C@]3(F)C[C@@H](OC[C@H](C)NC(C)=O)C3)c(F)c2s1` [Compound I-115] has a pIC50 of 7.92. `CCOc1nc2ccc(OC[C@]3(F)C[C@@H](OC[C@H](C)NC(C)=O)C3)c(Cl)c2s1` [Compound I-116] was tested, and the pIC50 was 7.39. With `CC(=O)N[C@@H](C)CO[C@H]1CC[C@H](Oc2ccc3nc(C4(F)CC4)sc3c2F)CC1` [Compound I-117] the pIC50 was 8.15. `CC(=O)N[C@@H](C)CO[C@H]1CC[C@H](Oc2ccc3nc(OC4CC4)sc3c2F)CC1` [Compound I-118] gave a pIC50 of 8.00. `CC(=O)N[C@@H](C)CO[C@H]1CC[C@H](Oc2ccc3nc(OCC4CC4)sc3c2F)CC1` [Compound I-119] showed a pIC50 of 8.40. With `CC(=O)N[C@@H](C)CO[C@H]1CC[C@H](Oc2ccc3nc(OCC4(F)COC4)sc3c2F)CC1` [Compound I-120] the pIC50 was 7.66. In the case of `CC(=O)N[C@@H](C)CO[C@H]1CC[C@H](Oc2ccc3nc(OCC(F)(F)F)sc3c2F)CC1` [Compound I-121], the pIC50 was 8.05. For `CC(=O)N[C@@H](C)CO[C@H]1CC[C@H](Oc2ccc3nc(OC(C)C)sc3c2F)CC1` [Compound I-122], the pIC50 was 7.92. Compound `CC(=O)N[C@@H](C)CO[C@H]1CC[C@H](Oc2ccc3nc(OCC(F)F)sc3c2F)CC1` [Compound I-123] has a pIC50 of 7.82. Compound `CC(=O)N[C@@H](C)CO[C@H]1CC[C@H](Oc2ccc3nc(Cl)sc3c2F)CC1` [Compound I-124] has a pIC50 of 7.43. Compound `CC(=O)N[C@@H](C)CO[C@H]1CC[C@H](Oc2ccc3nc(OC4(C)CC4)sc3c2F)CC1` [Compound I-125] has a pIC50 of 7.54. `CC(=O)N[C@@H](C)CO[C@H]1C[C@H](COc2cc3sc(C(C)C)nc3cn2)C1` [Compound I-126] showed a pIC50 of 6.40. Work on `CC(=O)N[C@@H](C)CO[C@H]1C[C@H](COc2ccc3nc(C(C)C)sc3c2F)C1` [Compound I-127] yielded a pIC50 of 7.08. In the case of `CC(=O)N[C@@H](C)CO[C@H]1C[C@H](COc2ccc3nc(C(C)C)sc3c2)C1` [Compound I-128], the pIC50 was 7.30. `CC(=O)N[C@@H](C)CO[C@H]1CC[C@H](Oc2ccc3nc(OCC(C)(C)O)sc3c2F)CC1` [Compound I-129] was tested, and the pIC50 was 6.86. With `CC(=O)N[C@@H](C)CO[C@H]1CC[C@H](Oc2ccc3nc(OC4COC4)sc3c2F)CC1` [Compound I-130] the pIC50 was 7.24. `CC(=O)N[C@@H](C)CO[C@H]1CC[C@H](Oc2ccc3nc(OCC(C)(C)OC4CCCCO4)sc3c2F)CC1` (stereo partly drawn) [Compound I-131] showed a pIC50 of 6.48. Compound `CC(=O)N[C@@H](C)CO[C@H]1C[C@H](COc2c(F)cc3nc(C(C)C)sc3c2Cl)C1` [Compound I-132] has a pIC50 of 7.32. `CC(=O)N[C@@H](C)CO[C@H]1C[C@H](COc2cc3sc(C(C)C)nc3cc2F)C1` [Compound I-133] gave a pIC50 of 7.11. With `CC(=O)N[C@@H](C)CO[C@H]1CC[C@H](Oc2ccc3nc(C4(F)COC4)sc3c2F)CC1` [Compound I-134] the pIC50 was 7.64. `CC(=O)N[C@@H](C)CO[C@H]1C[C@H](COc2ccc3nc(C(C)C)sc3n2)C1` [Compound I-135] was tested, and the pIC50 was 7.80. With `CC(=O)N[C@@H](C)CO[C@H]1C[C@](F)(COc2ccc3nc(C(C)(F)F)sc3c2F)C1` [Compound I-136] the pIC50 was 7.06. For `CC(=O)N[C@@H](C)CO[C@H]1C[C@](F)(COc2ccc3nc(C(C)(F)F)sc3c2Cl)C1` [Compound I-137], the pIC50 was 6.39. `CC(=O)N[C@@H](C)CO[C@H]1C[C@H](COc2ccc3nc(C4(F)CC4)sc3c2F)C1` [Compound I-138] showed a pIC50 of 7.04. `CC(=O)N[C@@H](C)CO[C@H]1C[C@H](COc2ccc3nc(C(C)(F)F)sc3c2)C1` [Compound I-139] showed a pIC50 of 7.05. With `CC(=O)N[C@@H](C)CO[C@H]1C[C@H](COc2ccc3nc(OC[C@@H](C)F)sc3c2)C1` [Compound I-140] the pIC50 was 6.84. `CC(=O)N[C@@H](C)CO[C@H]1C[C@H](COc2c(Cl)cc3nc(C(C)C)sc3c2Cl)C1` [Compound I-141] gave a pIC50 of 7.10.
